The source of these data is patent US10150761B2, “Substituted pyridine-piperazinyl analogues as RSV antiviral compounds” (Janssen Sciences Ireland UC, priority 2013, dated 2018).

The structures appear in SMILES notation. Where a name gives a salt, the structure may show the parent alone.

One series deals with rgRSV224 virus. As to the kind of experiment: Antiviral activity: rgRSV224 (GFP) replication in HeLa cells. In kind it is cell-based, respiratory syncytial virus (RSV). Particulars: human respiratory syncytial virus, HeLa, 72 h, read-out: RSV HELA pEC50, rgRSV224 virus (MOI=1), HeLa cells, GFP expression, three days post-virus exposure (converted). Here is the method:
Black 384-well clear-bottom microtiter plates (Corning, Amsterdam, The Netherlands) were filled via acoustic drop ejection using the echo liquid handler (Labcyte, Sunnyvale, Calif.), 200 nL of compound stock solutions (100% DMSO) were transferred to the assay plates, 9 serial 4-fold dilutions of compound were made, creating per quadrant the same compound concentration. The assay was initiated by adding 10 μL of culture medium to each well (RPMI medium without phenol red, 10% FBS-heat inactivated, 0.04% gentamycin (50 mg/mL). All addition steps are done by using a multidrop dispenser (Thermo Scientific, Erembodegem, Belgium). Next, rgRSV224 virus (MOI=1) diluted in culture medium was added to the plates, rgRSV224 virus is an engineered virus that includes an additional GFP gene (Hallak L K, Spillmann D. Collins P L, Peeples M E.
(§1) Glycosaminoglycan sulfation requirements for respiratory syncytial virus infection; Journal of virology (2000), 74(22), 10508-13) and was in-licensed from the NIH (Bethesda, Md., USA). Finally, 20 μL of a HeLa cell suspension (3,000 cells/well) were plated. Medium, virus- and mock-infected controls were included in each test. The wells contain 0.05% DMSO per volume. Cells were incubated at 37° C. in a 5% CO2 atmosphere. Three days post-virus exposure, viral replication was quantified by measuring GFP expression in the cells by an in house developed MSM laser microscope (Tibotec. Beerse, Belgium). The EC50 was defined as the 50% inhibitory concentration for GFP expression. In parallel, compounds were incubated for three days in a set of white 384-well microtiter plates (Corning) and the cytotoxicity of compounds in HeLa cells was determined by measuring the ATP content of the cells using the ATPlite kit (PerkinElmer, Zaventem, Belgium) according to the manufacturer's instructions. The CC50 was defined as the 50% concentration for cytotoxicity.

Series [1] can be described thus: Cytotoxicity in HeLa cells (ATP content, ATPlite kit). In kind it is cell-based. The note with it: human, three days incubation, read-out: TOX HELA pCC50 (converted). The procedure: as §1
A general note: In ATP-based viability assays light output follows the ATP content of the culture.

Usually melting point stands for the temperature, or range, at which the solid turns liquid. On to `c1cnc(-c2cccc3[nH]ccc23)c(N2CCN(c3ccncc3)CC2)c1`, for which the melting point amounted to 262 °C.
Still for that read-out and setting: with `COCCCn1c(-c2ncccc2N2CCN(c3ccncc3)CC2)cc2ccccc21` (as salt: fumarate) the figure was 168 °C.
`CC(=O)c1cccc(-c2nccnc2N2CCN(c3ccccc3)CC2)c1` [Compound 1] came in with a melting point of 172.56 °C. Also, the EC50 in the series on rgRSV224 virus was 955 nM. For the same molecule, the CC50 at 3 days in series [1] is 2290 nM.
For `c1ccc(-c2ncccc2N2CCN(c3ccncc3)CC2)cc1` [Compound 2], in that order: 204.15 °C, 603 nM and 1120 nM.
Consider `Clc1cccc(-c2ncccc2N2CCN(c3ccncc3)CC2)c1` [Compound 3], for which the EC50 with rgRSV224 virus was 550 nM. In addition, in series [1], the CC50 at 3 days was greater than 100000 nM.
As to `COc1ccc(-c2ncccc2N2CCN(c3ccncc3)CC2)cc1` [Compound 5], the EC50 with rgRSV224 virus is 427 nM. Also, the CC50 at 3 days in series [1] is greater than 100000 nM.
Take `Fc1cccc(-c2nccnc2N2CCN(c3ccccc3)CC2)c1` [Compound 6]: the melting point was found to be 139.51 °C. Moreover, in the series with rgRSV224 virus, the EC50 was 575 nM. Further, in series [1], the CC50 at 3 days is greater than 100000 nM.
In the case of `c1cc(N2CCN(c3nccnc3-c3ccc4occc4c3)CC2)ccn1` [Compound 7], the EC50 in the series with rgRSV224 virus was 871 nM. The CC50 at 3 days in series [1] was greater than 97700 nM.
Turning to `CC(=O)c1cccc(-c2ncccc2N2CCN(c3ccccc3)CC2)c1` [Compound 8], the melting point is 175.94 °C. Also, the EC50 with rgRSV224 virus is 646 nM. Also, in series [1], the CC50 at 3 days was greater than 100000 nM.
For `c1cnc(-c2ccc3c(c2)OCO3)c(N2CCN(c3ccncc3)CC2)c1` [Compound 9], in that order: 187.8 °C, 692 nM and greater than 100000 nM.
For `c1cnc(-c2ccc3ccccc3c2)c(N2CCN(c3ccncc3)CC2)c1` [Compound 10], in that order: 162.05 °C, 79.4 nM and 39800 nM.
For `Clc1ccc(-c2ncccc2N2CCN(c3ccncc3)CC2)cc1Cl` [Compound 11], in that order: 159.5 °C, 269 nM and 28200 nM.
In turn, `Fc1cccc(-c2ncccc2N2CCN(c3ccncc3)CC2)c1` [Compound 12] had a melting point of 184.88 °C. The EC50 in the series with rgRSV224 virus is 871 nM. Further, the CC50 at 3 days in series [1] is greater than 100000 nM.
For `Fc1ccc(-c2ncccc2N2CCN(c3ccncc3)CC2)cc1` [Compound 13], in that order: 173.62 °C, 603 nM and greater than 89100 nM.
Turning to `Clc1ccc(-c2ncccc2N2CCN(c3ccncc3)CC2)c(Cl)c1` [Compound 14], the EC50 in the series with rgRSV224 virus was 186 nM. For the same molecule, in series [1], the CC50 at 3 days was 40700 nM.
Consider `Clc1ccc(-c2ncccc2N2CCN(c3ccncc3)CC2)cc1` [Compound 15], for which the EC50 with rgRSV224 virus is 309 nM. Besides, in series [1], the CC50 at 3 days is 891 nM.
For `COc1ccc(-c2ncccc2N2CCN(c3ccncc3)CC2)cc1OC` [Compound 16], in that order: 977 nM and greater than 100000 nM.
`COc1ccc(-c2ncccc2N2CCN(c3ccncc3)CC2)cn1` [Compound 17]: the melting point worked out at 138 °C. Also, the EC50 in the series with rgRSV224 virus was 437 nM. For the same molecule, the CC50 at 3 days in series [1] is greater than 97700 nM.
`COc1cc(-c2ncccc2N2CCN(c3ccncc3)CC2)ccn1` [Compound 18]: in the series on rgRSV224 virus, the EC50 is 832 nM. Further, the CC50 at 3 days in series [1] is greater than 97700 nM.
With `CC(C)Oc1ccc(-c2ncccc2N2CCN(c3ccncc3)CC2)cn1` [Compound 19], the EC50 in the series with rgRSV224 virus is 525 nM. Further, the CC50 at 3 days in series [1] is 19100 nM.
`c1cnc(-c2ccncc2)c(N2CCN(c3ccncc3)CC2)c1` [Compound 20] displayed a melting point of 166 °C. Also, in the series with rgRSV224 virus, the EC50 is 871 nM. For the same molecule, the CC50 at 3 days in series [1] is greater than 100000 nM.
Consider `c1cnc(-c2cc3ccccc3s2)c(N2CCN(c3ccncc3)CC2)c1` [Compound 21], for which the melting point worked out at 224 °C. Moreover, the EC50 with rgRSV224 virus is 204 nM. The CC50 at 3 days in series [1] is 10500 nM.
The molecule `c1cnc(-c2ccc3c(c2)OCCO3)c(N2CCN(c3ccncc3)CC2)c1` [Compound 22] returned a melting point of 88 °C. In the series on rgRSV224 virus, the EC50 is 537 nM. Also, the CC50 at 3 days in series [1] is 398 nM.
For the molecule `c1cnc(-c2cc3ccccc3o2)c(N2CCN(c3ccncc3)CC2)c1` [Compound 23], the melting point was 252 °C. For the same molecule, the EC50 in the series on rgRSV224 virus was 58.9 nM. Also, the CC50 at 3 days in series [1] was greater than 50100 nM.
For `Cn1ccc2cc(-c3ncccc3N3CCN(c4ccncc4)CC3)ccc21` [Compound 24], in that order: 197 °C, 72.4 nM and 46800 nM.
For `FC(F)(F)Oc1ccc(-c2ncccc2N2CCN(c3ccncc3)CC2)cc1` [Compound 25], in that order: 176 °C, 871 nM and 33100 nM.
For `c1cnc(-c2cccc3ccccc23)c(N2CCN(c3ccncc3)CC2)c1` [Compound 26], in that order: 90 °C, 85.1 nM and 7410 nM.
The molecule `c1cnc(-c2ccc3occc3c2)c(N2CCN(c3ccncc3)CC2)c1` [Compound 27] registered a melting point of 192 °C. In the series with rgRSV224 virus, the EC50 is 135 nM. In addition, the CC50 at 3 days in series [1] was 74100 nM.
Consider `N#Cc1ccc(-c2ncccc2N2CCN(c3ccncc3)CC2)cc1` [Compound 28], for which the EC50 with rgRSV224 virus is 589 nM. The CC50 at 3 days in series [1] is greater than 100000 nM.
For `COc1cc(N2CCN(c3cccnc3-c3ccccc3)CC2)ccn1` [Compound 29], in that order: 123 nM and 257 nM.
The molecule `c1cnc(-c2ccc3c(c2)CCO3)c(N2CCN(c3ccncc3)CC2)c1` [Compound 30] displayed a melting point of 200 °C. In addition, the EC50 in the series with rgRSV224 virus is 603 nM. In addition, the CC50 at 3 days in series [1] was 1700 nM.
For `c1cnc(-c2cccc3ncccc23)c(N2CCN(c3ccncc3)CC2)c1` [Compound 31], in that order: 96 °C, 724 nM and greater than 97700 nM.
In turn, `Clc1cc(N2CCN(c3cccnc3-c3ccccc3)CC2)ccn1` [Compound 32] gave a melting point of 122 °C. Besides, in the series on rgRSV224 virus, the EC50 is 105 nM. Besides, in series [1], the CC50 at 3 days is 135 nM.
For the molecule `c1cnc(-c2cnc3ccccc3c2)c(N2CCN(c3ccncc3)CC2)c1` [Compound 33], the melting point stood at 182 °C. For the same molecule, the EC50 with rgRSV224 virus is 219 nM. Also, the CC50 at 3 days in series [1] is greater than 100000 nM.
For `CN(C)c1ccc(-c2ncccc2N2CCN(c3ccncc3)CC2)cc1` [Compound 34], in the series with rgRSV224 virus, the EC50 was 295 nM. Besides, in series [1], the CC50 at 3 days is 74100 nM.
In the case of `Cn1c(-c2ncccc2N2CCN(c3ccncc3)CC2)cc2ccccc21` [Compound 40], the EC50 in the series on rgRSV224 virus is 25.1 nM. Moreover, the CC50 at 3 days in series [1] is 53700 nM.
For `N#CCCn1ccc2ccc(-c3ncccc3N3CCN(c4ccncc4)CC3)cc21` [Compound 48], in that order: 166 nM and greater than 100000 nM.
For `N#CCCn1ccc2cc(-c3ncccc3N3CCN(c4ccncc4)CC3)ccc21` [Compound 51], in that order: 74.1 nM and 55000 nM.
For `CC1CN(c2cccnc2-c2ccc3ccn(C)c3c2)CCN1c1ccncc1` (stereo not drawn) [Compound 52], in that order: 13.5 nM and 44700 nM.
Regarding `c1ccc(Cc2nccnc2N2CCN(c3ccncc3)CC2)cc1` [Compound 53], the EC50 in the series with rgRSV224 virus was 3390 nM. The CC50 at 3 days in series [1] is 75900 nM.
For `c1cnc(-c2ccc(C3CCCCC3)cc2)c(N2CCN(c3ccncc3)CC2)c1` [Compound 61], in that order: 832 nM and 3470 nM.
For `COc1ccc(C(O)(c2ccc(OC)cc2)c2ncccc2N2CCN(c3ccncc3)CC2)cc1` [Compound 64], in that order: 50.1 nM and greater than 93300 nM.
For `Cn1cc(-c2ccc(-c3ncccc3N3CCN(c4ccncc4)CC3)cc2)cn1` [Compound 66], in that order: 933 nM and 70800 nM.
As to `Cn1nccc1-c1ccc(-c2ncccc2N2CCN(c3ccncc3)CC2)cc1` [Compound 67], the EC50 in the series on rgRSV224 virus was 407 nM. Also, the CC50 at 3 days in series [1] was 97700 nM.
For `COc1ccc(C(O)c2ncccc2N2CCN(c3ccncc3)CC2)cc1` (stereo not drawn) [Compound 71], in that order: 39800 nM and greater than 100000 nM.
For `COc1ccc(C(C)(O)c2ncccc2N2CCN(c3ccncc3)CC2)cc1` (stereo not drawn) [Compound 72], in that order: 525 nM and greater than 100000 nM.
On to `OC1(c2ccccc2)CCN(c2ncccc2N2CCN(c3ccncc3)CC2)CC1` [Compound 73], for which, in the series on rgRSV224 virus, the EC50 was 631 nM. For the same molecule, the CC50 at 3 days in series [1] is 63100 nM.
